Source: US10714208B2, “Computer systems for treating diseases” (Biotempus Limited, priority 2009, dated 2020)

System: metastatic melanoma
Test: Pilot clinical study: temozolomide chemotherapy timed relative to the CRP oscillation cycle
Type: in vivo, human
Method: A pilot clinical study was conducted on 12 patients with metastatic melanoma (median age 61; 4 female; 7 with M1c disease) at The Mayo Clinic, Rochester, Minn., USA headed by Dr Svetomir Markovic. Serial CRP measurements were taken every 2-3 days for 2 weeks. The CRP oscillation cycle was identified by analysis of the raw data without any computer aided modelling, and chemotherapy with temozolomide (200 mg/m2 for 5 days, every 28 days) was initiated. Patients were evaluated for clinical and immune response endpoints every 8 weeks until progression.

Question: For Cn1nnc2c(C(N)=O)ncn2c1=O [temozolomide], which time to progression (the other patients, treated post CRP-peak) is on record?
Answer: < 5 months

Question: What about the remain progression-free (two patients with metastatic melanoma treated in the pre-peak section of the CRP cycle, temozolomide 200 mg/m2 for 5 days, every 28 days) of the same compound?
Answer: > 2 years
